From patent US11083197B2, “Herbicidal composition comprising chromone derivatives and a method for weed control” (INVESTIGACIONES BIOLÓGICAS EN AGROQUÍMICOS ROSARIO S.A., priority 2015, dated 2021)

Columns and labels:
cucumber cotyledon disks = assay: Electrolyte leakage assay; type: cell-based; conditions: for destabilization of cell membranes, electrolyte leakage / electrolyte leakage versus boiled positive control: 100 and 300 μM; for electrolyte leakage versus boiled positive control: 16 h dark plus 26 h of high light intensity
Protocol: The effects of pure furanochromones, compounds of formulas III and IV (Sigma Aldrich), on membrane stability were studied as described by Dayan and Watson.^23 Cucumber cotyledon disks were exposed to each furanochromone at 100 and 300 μM. Control tissues were exposed to the same solvent as treated tissues but without the compounds. Conductivity measurements were carried out at the beginning of the dark incubation period, a second measurement was made after 16 h, at which time the samples were placed under high light intensity, and final measurements were made after 8 and 26 h of light exposure. Each experiment consisted of three replicates. Maximum conductivity was measured by boiling three samples of each treatment for 20 min. To study if electrolyte leakage caused by compounds of formulas III and IV was light-dependent, two sets of Petri plates were prepared with cucumber cotyledon disks exposed to test compounds and control in both. One set was treated as described before (dark 16 h/light 26 h) while the other one was kept in darkness for 42 h. Conductivity measurements were done at the indicated times.

[1] = tested on: crabgrass (D. sanguinalis) and velvetleaf (A. theophrasti); assay: Greenhouse postemergence spray, 2.0 kg ai/ha; type: in vivo, Digitaria sanguinalis; Abutilon theophrasti; conditions: for symptoms on leaves after post-emergence spray: 6-8-day-old plants, both weed species
Protocol: Aqueous solutions containing commercial standards of pure compounds of formulas III and IV were prepared and sprayed on crabgrass (D. sanguinalis) and velvetleaf (A. theophrasti). For better dissolution of compounds in water Tween 20 (1% v/v) and acetone (1% v/v) were added to spray solution. For postemergence application 6-8-day-old plants were sprayed, and final rate of compounds was 2.0 kg active ingredient (ai) ha^−1. Plant height and dry weight were measured at 11 days after spray. Results were compared with atrazine at 1.0 kg ai ha^−1.

[2] = tested on: green alga Chlamydomonas reinhardtii; conditions: equimolar concentrations and equal UV-A doses; cited from earlier work
[3] = tested on: crabgrass (D. sanguinalis), barnyardgrass (E. crus-galli) and velvetleaf (A. theophrasti); assay: Greenhouse postemergence spray, 4.0 kg ai/ha; type: in vivo
Protocol: Aqueous solution containing commercial standard of pure compound of Formula IV was prepared and sprayed on crabgrass (D. sanguinalis), barnyardgrass (E. crus-galli) and velvetleaf (A. theophrasti). Plants were sprayed at 2-3 true leaf stage (13-16-day-old plants). For better dissolution of compounds in water AGRIDEX (1% v/v) and acetone (1% v/v) were added to spray solutions. Final rate of compounds was 4.0 kg ai ha^−1. Plant height and dry weight were measured at 11 days after spray. Results were compared with the bio herbicide pelargonic acid at 4.0 kg ai ha^−1.

SMILES | destabilization of cell membranes, electrolyte leakage (cucumber cotyledon disks) | electrolyte leakage versus boiled positive control (cucumber cotyledon disks) | symptoms on leaves after post-emergence spray [1] | phototoxicity and photomutagenicity compared with bergapten [2] | kind of postemergence herbicidal activity [3] | height and biomass of sprayed weeds versus control plants ([3]; 11 days after spray) | symptoms on treated plants ([3]; 11 days after treatment) | electrolyte leakage (cucumber cotyledon disks; 100 μM, after 8 h in the light) | plant size and biomass respect solvent control ([1]; 11 days after spray)
COc1c2occc2c(OC)c2c(=O)cc(C)oc12 [Formula III, 4,9-dimethoxy-7-methyl-5H-furo[3,2-g]chromen-5-one] | significant electrolyte leakage | comparable to the positive control | Necrosis symptoms |  |  |  |  |  | 
COc1c2ccoc2cc2oc(C)cc(=O)c12 [Formula IV, 4-methoxy-7-methyl-5H-furo[3,2-g]chromen-5-one] | significant electrolyte leakage | comparable to the positive control | Necrosis symptoms | much less phototoxic and photomutagenic than bergapten | by contact and non-selective | significantly smaller | necrotic lesions and some abnormally formed leaves | caused electrolyte leakage | significant reduction of plant size and biomass
